Results as given in PubChem BioAssay AID1671241.

Target: Macrophage colony-stimulating factor 1 receptor (Homo sapiens) (UniProt P07333)
Assay: inhibition of human FMS receptor kinase activity – biochemical, Z'-LYTE, FRET, protease-coupled, direct format, dose response (AID 1671241)
Settings: Z'-LYTE FRET kinase assay, CSF1R

Chain of Macrophage colony-stimulating factor 1 receptor (Homo sapiens) (P07333 whole entry, looked up): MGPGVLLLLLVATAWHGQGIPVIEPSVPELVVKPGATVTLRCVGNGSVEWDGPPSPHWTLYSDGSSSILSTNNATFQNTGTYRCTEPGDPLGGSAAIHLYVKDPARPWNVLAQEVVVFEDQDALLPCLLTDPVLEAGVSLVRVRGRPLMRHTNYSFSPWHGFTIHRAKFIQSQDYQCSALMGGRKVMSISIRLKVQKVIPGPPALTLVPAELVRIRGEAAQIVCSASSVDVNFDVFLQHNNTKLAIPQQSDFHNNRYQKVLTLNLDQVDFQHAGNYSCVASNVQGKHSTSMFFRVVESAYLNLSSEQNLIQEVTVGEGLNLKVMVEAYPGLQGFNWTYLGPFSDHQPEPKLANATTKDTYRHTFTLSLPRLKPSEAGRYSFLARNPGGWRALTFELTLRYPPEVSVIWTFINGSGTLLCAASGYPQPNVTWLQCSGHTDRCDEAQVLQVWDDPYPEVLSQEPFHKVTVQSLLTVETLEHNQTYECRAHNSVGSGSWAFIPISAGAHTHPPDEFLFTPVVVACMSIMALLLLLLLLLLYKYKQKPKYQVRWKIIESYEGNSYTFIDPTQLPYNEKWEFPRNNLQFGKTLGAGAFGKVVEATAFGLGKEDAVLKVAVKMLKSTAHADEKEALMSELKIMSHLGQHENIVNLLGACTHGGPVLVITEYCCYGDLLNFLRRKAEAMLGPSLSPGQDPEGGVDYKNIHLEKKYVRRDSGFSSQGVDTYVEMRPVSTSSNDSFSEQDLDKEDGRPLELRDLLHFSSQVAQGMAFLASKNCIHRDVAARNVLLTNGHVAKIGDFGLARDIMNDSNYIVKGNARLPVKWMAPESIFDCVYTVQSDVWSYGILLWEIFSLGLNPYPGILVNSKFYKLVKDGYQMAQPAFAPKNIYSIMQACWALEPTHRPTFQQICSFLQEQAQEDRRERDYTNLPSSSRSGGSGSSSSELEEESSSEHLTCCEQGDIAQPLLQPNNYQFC

COc1cc2ncnc(Nc3cccc(Cl)c3)c2cc1OC
IC50: 6.02 µM
